Experimental data: article PMC7571217, “Adenosine Receptor Ligands: Coumarin–Chalcone Hybrids as Modulating Agents on the Activity of hARs” (Molecules, 2020)

Assays:
hA2A = target: T1, hA2A (Homo sapiens, UniProt P29274); test: Radioligand competition binding, [3H]NECA, hA2A in CHO cells; conditions: [3H]NECA 10 nM
T1 construct: expressed in transfected cells; host or cells: CHO cells (stably transfected)
Procedure: (§1) (5′-N-ethylcarboxamidoadenosine) to hA2A; and specific binding of [^3H]HEMADO (2-(1-hexynyl)-N^6-methyladenosine) to hA3. […] Due to the lack of a suitable radioligand for the hA2B receptor, the potency of antagonists at the hA2B receptor was determined by inhibition of NECA-stimulated adenylyl cyclase activity with increasing concentrations of antagonist.
(§2) The binding affinity for hA1, hA2A, hA3 of the synthetized compounds was evaluated using radioligand competition experiments in CHO cells that were stably transfected with the individual receptor subtypes. […] Due to the lack of a suitable radioligand for the hA2B receptor, the potency of antagonists at the hA2B receptor (expressed on CHO cells) was determined by inhibition of NECA-stimulated adenylyl cyclase activity. The IC50 for inhibition of cAMP (cyclic adenosine monophosphate) production was determined and converted to Ki values using the Cheng and Prusoff equation [56].
(§3) Ki values (dissociation constants) were determined in radioligand competition experiments with 7–8 different concentrations of test compound and each concentration was tested in duplicate. […] The program Prism 6 (GraphPad Software) was used for the analysis of the competition curves.

hA3 [1] = target: T2, hA3 (Homo sapiens, UniProt P0DMS8); test: Radioligand competition binding, [3H]HEMADO, hA3 in CHO cells; conditions: [3H]HEMADO 1 nM, geometric mean of 3 experiments (95% CI)
T2 construct: expressed in transfected cells; host or cells: CHO cells (stably transfected)
T2 sequence (P0DMS8 1-318): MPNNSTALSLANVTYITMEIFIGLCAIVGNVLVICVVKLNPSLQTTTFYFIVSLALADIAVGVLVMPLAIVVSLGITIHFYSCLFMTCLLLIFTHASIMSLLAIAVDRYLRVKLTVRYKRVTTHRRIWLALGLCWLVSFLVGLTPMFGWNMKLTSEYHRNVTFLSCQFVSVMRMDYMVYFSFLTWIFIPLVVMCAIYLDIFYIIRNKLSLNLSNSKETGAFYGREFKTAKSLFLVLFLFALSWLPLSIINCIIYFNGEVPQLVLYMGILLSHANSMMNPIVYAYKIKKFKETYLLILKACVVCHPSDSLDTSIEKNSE
Procedure: as §1, §2, §3

hA1 = hA1 (Homo sapiens, UniProt P30542); test: biochemical
hA1, sequence (P30542 whole entry): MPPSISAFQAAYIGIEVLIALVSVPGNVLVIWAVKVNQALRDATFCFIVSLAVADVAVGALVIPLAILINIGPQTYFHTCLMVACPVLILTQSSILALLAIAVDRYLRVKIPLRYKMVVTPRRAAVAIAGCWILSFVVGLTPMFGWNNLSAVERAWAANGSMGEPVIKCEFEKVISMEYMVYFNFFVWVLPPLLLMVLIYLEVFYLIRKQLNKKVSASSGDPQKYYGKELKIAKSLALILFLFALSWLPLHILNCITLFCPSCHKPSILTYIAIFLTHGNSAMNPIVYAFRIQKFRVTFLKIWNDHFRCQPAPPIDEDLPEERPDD
Procedure: as §1, §2, §3

hA3 [2] = target: T2, hA3; conditions: radioligand used at 1 nM; ref [44],[45]; cited from earlier work

T1 sequence (P29274 whole entry): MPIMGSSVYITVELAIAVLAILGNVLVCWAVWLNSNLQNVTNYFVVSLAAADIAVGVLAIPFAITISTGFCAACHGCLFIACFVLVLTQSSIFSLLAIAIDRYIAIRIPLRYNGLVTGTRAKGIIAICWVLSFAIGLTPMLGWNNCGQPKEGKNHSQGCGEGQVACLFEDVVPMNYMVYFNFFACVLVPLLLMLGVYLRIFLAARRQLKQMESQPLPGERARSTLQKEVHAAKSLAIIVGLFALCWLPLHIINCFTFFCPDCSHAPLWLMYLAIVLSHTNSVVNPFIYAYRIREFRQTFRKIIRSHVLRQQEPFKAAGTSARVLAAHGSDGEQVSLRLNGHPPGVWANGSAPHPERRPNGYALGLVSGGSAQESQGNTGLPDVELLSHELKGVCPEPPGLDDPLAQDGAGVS

SMILES | melting point [°C] | Ki (hA2A) [µM] | Ki (hA3 [1]) [µM] | Ki (hA1) [µM] | Kd (hA3 [2]) [µM]
COc1ccc(C(=O)c2cc3ccccc3oc2=O)cc1OC [Compound 1, 3-(3′,4′-Dimethoxybenzoyl)coumarin] | 190 to 191 | > 100 | > 100 | > 100 | 
COc1ccc2oc(=O)c(C(=O)c3ccc(OC)c(OC)c3)cc2c1 [Compound 2, 6-Methoxy-3-(3′,4′-dimethoxybenzoyl)coumarin] | 202 to 203 | > 100 | > 100 | > 100 | 
COc1cc(OC)c2cc(C(=O)c3ccc(OC)c(OC)c3)c(=O)oc2c1 [Compound 3, 5,7-Dimethoxy-3-(3′,4′-dimethoxybenzoyl)coumarin] | 210 to 211 |  | 9.03 | > 30 | 
COc1ccc(C(=O)c2cc3c(OC)cc(OC)cc3oc2=O)cc1 [Compound 4, 5,7-Dimethoxy-3-(4′-methoxybenzoyl)coumarin] | 174 to 175 |  | 2.49 | > 100 | 
O=C(c1ccc(O)c(O)c1)c1cc2ccccc2oc1=O [Compound 5] |  |  | 34.5 | 39.5 | 
O=C(c1ccc(O)c(O)c1)c1cc2cc(O)ccc2oc1=O [Compound 6] |  |  | > 60 | 54 | 
O=C(c1ccc(O)c(O)c1)c1cc2c(O)cc(O)cc2oc1=O [Compound 7] |  |  | > 30 | 17.7 | 
O=C(c1ccc(O)cc1)c1cc2c(O)cc(O)cc2oc1=O [Compound 8, 5,7-Dihydroxy-3-(4′-hydroxybenzoyl)coumarin] | 290 to 292 |  | > 60 | 29.1 | 
CCCCC#Cc1nc(NC)c2ncn([C@@H]3O[C@H](CO)[C@@H](O)[C@H]3O)c2n1 [[^3H]HEMADO, 2-(1-hexynyl)-N^6-methyladenosine] |  |  |  |  | 0.0012
